What all share (format): physicochemical
Series [1] is described as follows: Hygroscopic weight gain (gravimetric method). The procedure:
Gravimetric method: The initial weight of a sample was measured, recorded as W1, and then the weight of the sample after being placed under high-humidity conditions for a certain period of time was measured, recorded as W2; the percentage of hygroscopic weight gain was calculated based on the weight difference, using the following calculation formula: (W2−W1)/W1*100%.
(§1) The inventors first conducted a study on the physicochemical properties of the active pharmaceutical ingredient. The specific procedures were as follows: The active pharmaceutical ingredient and different auxiliary materials were mixed at different ratios and then placed under different conditions; the samples were taken out at different time points and then observed for appearance, hygroscopic weight gain, active pharmaceutical ingredient content, related substance content, etc.

Series [2] can be described thus: Related substances (HPLC), compatibility and stability. The procedure:
Gradient elution was performed according to the table below, with a run time of 50.0 min and a post-run time of 5 min.
as §1

Series [3] is described as follows: Micromeritic properties of powders (angle of repose, bulk density, tap density, Carr index, flowability).
Series [4] is described as follows: Content determination of active pharmaceutical ingredient (HPLC). The method, then: Chromatographic conditions: Octadecylsilane-bonded silica gel was used as the filler (Waters XBridge® C18, 4.6×150 mm, […] chromatographic column or chromatographic column with equivalent performance); a 0.1 vol % trifluoroacetic acid solution was used as mobile phase A, and a solution of 0.1 vol % trifluoroacetic acid in acetonitrile was used as mobile phase B; isocratic elution was performed with mobile phase A-mobile phase B (70:30); the detection wavelength was 232 nm, the flow rate was 1.0 mL/min, the column temperature was 40° C., the sample injection volume was 10 μL, and the run time was 10 min.
as §1

Series [5] is described as follows: Particle size distribution of active pharmaceutical ingredient (Malvern Mastersizer 2000). The procedure:
The active pharmaceutical ingredient was mechanically milled, and samples were taken at different milling time points. The particle size distribution was determined using a Malvern Mastersizer 2000 laser particle size analyzer, and the particle morphology was observed using a polarizing microscope. [table]

Where [6] appears, read: API of the capsule batch of the same table line.

We go through five compounds from US20260284055A1, “FGFR4 INHIBITOR COMPOSITION, PREPARATION METHOD THEREFOR AND PHARMACEUTICAL USE THEREOF” (Abbisko Therapeutics Co., Ltd., priority 2023, published 2026).

Bounds are passed on as bounds.

Turning to `C=CC(=O)N[C@H]1CCOC[C@H]1Nc1ncc2cc(-c3c(F)c(OC)cc(OC)c3F)nc(N3CC(C)(OC)C3)c2n1.Cc1ccc(S(=O)(=O)O)cc1.O` [Active pharmaceutical ingredient, p-toluenesulfonate monohydrate of the compound of formula (I)], the “Percentage change in hygroscopic weight gain” value is 0.6% in series [1] (25° C./92.5% RH, 10 d); 0.3% in series [1] (25° C./92.5% RH, 30 d); 0.2% in series [1] (40° C./75% RH, 10 d); −0.3% in series [1] (40° C./75% RH, 30 d). Further, in series [1] (API alone), the Hygroscopicity entry was “not highly hygroscopic”. Besides, the “Related substance (%)” value in series [2] (0 d) is 0.66%; in series [2] (25° C./92.5% RH (open), 30 d), 0.98%; in series [2] (25° C./92.5% RH (open), 30 d, listed as active pharmaceutical ingredient), “slight increase in impurities”; in series [2] (40° C./75% RH (open), 30 d) it was 0.58%; in series [2] (40° C./75% RH (open), 30 d, listed as active pharmaceutical ingredient), “remained stable”; in series [2] (60° C. (open), 30 d), 0.66%. Further, the “Related substance (%)” value in series [2] (60° C. (open), 30 d, listed as active pharmaceutical ingredient) is on record as “remained stable”; in series [2] (Light exposure (open), 10 d), 0.64%; in series [2] (Light exposure (open), 10 d, listed as active pharmaceutical ingredient), “remained stable”. Moreover, in series [2] (API), the “RRT = 0.27 related substance content” value is listed as less than 0.05%. Also, in series [2] (API), the “RRT = 0.44 related substance content” value was determined as 0.09%. Also, in series [2] (API), the “RRT = 0.56 related substance content” value is given as less than 0.05%. Moreover, the “RRT = 0.71 related substance content” value in series [2] (API) is given as 0.05%. The “RRT = 0.74 related substance content” value in series [2] (API) stood at 0.06%. The “RRT = 0.88 related substance content” value in series [2] (API) is reported as 0.06%. Moreover, in series [2] (API), the “RRT = 0.97 related substance content” value is less than 0.05%. In series [2] (API), the “RRT = 1.05 related substance content” value is less than 0.05%. For the same compound, the “RRT = 1.09 related substance content” value in series [2] (API) is less than 0.05%. Besides, the “RRT = 1.27 related substance content” value in series [2] (API) is reported as 0.20%. For the same compound, in series [2] (API), the “RRT = 2.00 related substance content” value is 0.14%. The same compound yielded a Related substance in series [2] (API) of 0.60%. Besides, the “API impurities: Single impurity” value in series [2] (setting [6]) was “Single impurity < 0.05%”. The “API impurities: Total impurities” value in series [2] (setting [6]) is “Total impurities < 0.05%”. Also, the “single impurity (RRT=0.44)” value was 0.07% in series [2] (after 10 days of exposure to light) and less than 0.05% in series [2] (before exposure to light). This compound also gave an Angle of repose in series [3] of 44.66 °. In addition, the Bulk density in series [3] is given as 0.447 g/mL. Besides, the Carr index in series [3] was 40%. In series [3], the Tap density was 0.740 g/mL. Further, the Content in series [4] (0 d) was 100.5%; in series [4] (25° C./92.5% RH, 30 d) it was 99.5%; in series [4] (40° C./75% RH, 30 d), 98.6%; in series [4] (60° C., 30 d) it was 102.5%; in series [4] (Light exposure, 10 d), 96.5%.
For the compound `C=CC(=O)N[C@H]1CCOC[C@H]1Nc1ncc2cc(-c3c(F)c(OC)cc(OC)c3F)nc(N3CC(C)(OC)C3)c2n1` [Test 2], in series [5], the “Particle size distribution D10” value turned out to be 1.509 μm, the “Particle size distribution D50” value was determined as 9.682 μm and the “Particle size distribution D90” value is recorded as “D90 = 63.594 μm”.
For `C=CC(=O)N[C@H]1CCOC[C@H]1Nc1ncc2cc(-c3c(F)c(OC)cc(OC)c3F)nc(N3CC(C)(OC)C3)c2n1` [Test 1], in that order: 2.168 μm, 14.763 μm and “D90 = 125.775 μm”.
For the compound `C=CC(=O)N[C@H]1CCOC[C@H]1Nc1ncc2cc(-c3c(F)c(OC)cc(OC)c3F)nc(N3CC(C)(OC)C3)c2n1` [Test 0], in series [5], the “Particle size distribution D50” value is 155.607 μm and the “Particle size distribution D90” value was determined as 333.563 μm.
As for `C=CC(=O)N[C@H]1CCOC[C@H]1Nc1ncc2cc(-c3c(F)c(OC)cc(OC)c3F)nc(N3CC(C)(OC)C3)c2n1` [Test 3], in series [5], the “Particle size distribution D10” value was 1.298 μm, the “Particle size distribution D50” value turned out to be 8.279 μm and the “Particle size distribution D90” value is “D90 = 43.137 μm”.
